We go through 20 compounds from PubChem BioAssay (NCI).

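Five compound concentrations were applied to cells in 96-well plates for 48 hours; endpoints were derived by simple linear interpolation of the resulting dose-response curve. TGI: concentration producing complete growth inhibition.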

Among the test systems are T-47D breast; UO-31 renal; CCRF-CEM leukemia; SR leukemia; TK-10 renal; COLO 205 colon; SK-MEL-5 melanoma; SK-OV-3 ovarian; NCI-H522 lung; LOX IMVI melanoma.
What all share (experiment): NCI tumour cell line growth inhibition, 48 h

For the compound `Oc1c(C2=NNC(c3ccc(Cl)cc3Cl)C2)ccc2ccccc12` (stereo not given), the TGI is more than 100 µM in the assay on T-47D breast; more than 100 µM in the assay with UO-31 renal; 32.8 µM with CCRF-CEM leukemia; 35 µM in the assay on SR leukemia; more than 100 µM in the assay on TK-10 renal; more than 100 µM in the assay with COLO 205 colon. In addition, the TGI in the assay on SK-MEL-5 melanoma, in the assay on SK-OV-3 ovarian and in the assay with NCI-H522 lung was more than 100 µM in each case.

Regarding `O=C(NCC(=O)N1CCCC1C(=O)OC(=O)C1CCCN1C(=O)CNC(=O)OCc1ccccc1)OCc1ccccc1` (stereo not given), the TGI was more than 100 µM in the assay on T-47D breast; more than 100 µM in the assay with UO-31 renal; more than 100 µM with CCRF-CEM leukemia; more than 100 µM with SR leukemia; 49.7 µM with TK-10 renal; 36.2 µM with LOX IMVI melanoma. Besides, the TGI in the assay on COLO 205 colon was 33.9 µM; with SK-MEL-5 melanoma, 62.3 µM; with SK-OV-3 ovarian, more than 100 µM; in the assay on NCI-H522 lung, more than 100 µM.

For `NS(=O)(=O)c1ccc(N=Nc2nc3[nH]c(=O)[nH]c(=O)c3[nH]2)cc1`, the TGI in the assay with T-47D breast, in the assay on UO-31 renal, with SR leukemia, with TK-10 renal, in the assay on LOX IMVI melanoma and in the assay with COLO 205 colon was more than 100 µM in each case. The TGI in the assay with SK-MEL-5 melanoma, with SK-OV-3 ovarian and with NCI-H522 lung was more than 100 µM in each case.

As to `CC1(C)CC(=O)c2[nH]c3ccccc3c2CC(=O)NCCc2cn1cn2`, the TGI with T-47D breast, with UO-31 renal, in the assay with SR leukemia, in the assay with TK-10 renal, in the assay with LOX IMVI melanoma and with COLO 205 colon was more than 100 µM in each case. Moreover, the TGI with SK-MEL-5 melanoma, in the assay with SK-OV-3 ovarian and in the assay with NCI-H522 lung was more than 100 µM throughout.

Take `CCOC(=O)c1c(-c2ccc(OC)cc2)c(C#N)c(=S)n(C2OC(COC(C)=O)C(OC(C)=O)C(OC(C)=O)C2OC(C)=O)c1-c1ccccc1` (stereo not given): the TGI with T-47D breast, in the assay on UO-31 renal, in the assay on CCRF-CEM leukemia, in the assay on SR leukemia, in the assay on TK-10 renal and with LOX IMVI melanoma was more than 100 µM throughout. Also, the TGI in the assay with SK-MEL-5 melanoma and in the assay on SK-OV-3 ovarian was more than 100 µM in each case.

Regarding `CC(C)(C)[Si](C)(C)OCC1OC(n2ccc(N)nc2=O)C(O[Si](C)(C)C(C)(C)C)C1O[Si](C)(C)C(C)(C)C` (stereo not given), the TGI in the assay on T-47D breast came to 11.6 µM; in the assay on UO-31 renal, 3.07 µM; in the assay on SR leukemia it was 6.66 µM; in the assay on LOX IMVI melanoma it was 3.23 µM; in the assay with COLO 205 colon, 9.84 µM; with SK-MEL-5 melanoma, 3.43 µM. The TGI with SK-OV-3 ovarian was determined as 6.36 µM; with NCI-H522 lung it was 3.36 µM.

As for `CCCCN(CCCC)CC(O)c1cc(-c2ccc(C(F)(F)F)cc2)nc(-c2ccc(C(F)(F)F)cc2)c1` (stereo not given), the TGI with T-47D breast, in the assay with UO-31 renal, with CCRF-CEM leukemia, in the assay with SR leukemia, in the assay with TK-10 renal and in the assay on LOX IMVI melanoma was more than 100 µM throughout. For the same compound, the TGI in the assay with COLO 205 colon, with SK-OV-3 ovarian and in the assay with NCI-H522 lung was more than 100 µM throughout.

Take `CC1(c2cccs2)CC(c2cccs2)=C(C#N)C(=C(C#N)C#N)N1` (stereo not given): the TGI was 39.4 µM in the assay on T-47D breast; 34.8 µM in the assay on UO-31 renal; 27.9 µM with CCRF-CEM leukemia; more than 100 µM in the assay with SR leukemia; 36.5 µM in the assay with TK-10 renal; 32.4 µM in the assay with LOX IMVI melanoma. For the same compound, the figures for the TGI with COLO 205 colon, in the assay on SK-MEL-5 melanoma and in the assay with SK-OV-3 ovarian were 39.9 µM, 28.8 µM and 37.1 µM, respectively.

`O=c1cnn(C/C=C/CBr)c(=O)[nH]1`: the TGI is 57 µM in the assay on T-47D breast; 28.8 µM with UO-31 renal; 47.6 µM with CCRF-CEM leukemia; 42.8 µM with SR leukemia; 67.4 µM with LOX IMVI melanoma; 41.9 µM in the assay with COLO 205 colon. For the same compound, the figures for the TGI with SK-MEL-5 melanoma and in the assay on NCI-H522 lung were 26.6 µM and 22.9 µM, respectively.

Consider `CCCC[C@@H]1CCN2C[C@@H](O)[C@@H](O)[C@@H]2[C@H]1O`, for which the TGI in the assay with T-47D breast, in the assay with UO-31 renal, in the assay on CCRF-CEM leukemia, with SR leukemia, with LOX IMVI melanoma and in the assay with COLO 205 colon was more than 100 µM each time. Moreover, the TGI in the assay on SK-MEL-5 melanoma, in the assay with SK-OV-3 ovarian and in the assay on NCI-H522 lung was more than 100 µM throughout.

Consider `O=C1NC(NNc2ccccc2)=N/C1=C\c1ccccc1O`, for which the TGI in the assay with T-47D breast, in the assay with UO-31 renal, with SR leukemia, with TK-10 renal, in the assay on LOX IMVI melanoma and in the assay with COLO 205 colon was more than 100 µM in each case. The TGI with SK-OV-3 ovarian and in the assay on NCI-H522 lung was more than 100 µM each time.

On to `CCCC(=O)n1[nH]c(=O)n(-c2ccc(Cl)cc2)c1=O`, for which the TGI in the assay on T-47D breast, with UO-31 renal, with CCRF-CEM leukemia, in the assay with SR leukemia, in the assay with TK-10 renal and in the assay with LOX IMVI melanoma was more than 100 µM each time. Also, the TGI in the assay on COLO 205 colon, in the assay with SK-MEL-5 melanoma and in the assay on SK-OV-3 ovarian was more than 100 µM throughout.

Take `CCOC(=O)C1=C(C)N(Cc2ccc(Cl)cc2Cl)C2(O)C=CC(=O)C3C(=O)N(c4ccccc4)C(=O)C132` (stereo not given): the TGI in the assay on T-47D breast turned out to be 3.12 µM; in the assay on UO-31 renal, 5 µM; in the assay on CCRF-CEM leukemia, 1.4 µM; in the assay on SR leukemia, 2.23 µM; in the assay on TK-10 renal, 8.09 µM; in the assay with LOX IMVI melanoma, 2.38 µM. Also, the TGI in the assay with COLO 205 colon worked out at 3.36 µM; in the assay on SK-MEL-5 melanoma, 8.57 µM; in the assay on NCI-H522 lung, 3.64 µM.

`COc1ccc(N2C(=O)CC(C3CC(C(C)(C)C)CCC3=O)C2=O)cc1` (stereo not given): the TGI in the assay with T-47D breast, with UO-31 renal, with CCRF-CEM leukemia, in the assay on SR leukemia, in the assay on TK-10 renal and with COLO 205 colon was more than 100 µM throughout. The figures for the TGI in the assay on SK-MEL-5 melanoma, in the assay with SK-OV-3 ovarian and in the assay with NCI-H522 lung were more than 100 µM, more than 100 µM and 32.9 µM, respectively.

Regarding `CCCCc1c(N(C)C)c(OC(C)=O)c(-c2cn(C)c3ccccc23)oc1=O`, the TGI in the assay on T-47D breast was more than 100 µM; in the assay on UO-31 renal, 53 µM; in the assay with CCRF-CEM leukemia, more than 100 µM; with SR leukemia, more than 100 µM; in the assay with TK-10 renal it was more than 100 µM; with COLO 205 colon, 44.1 µM. The TGI in the assay on SK-MEL-5 melanoma was 26.8 µM; in the assay with SK-OV-3 ovarian, more than 100 µM; with NCI-H522 lung, 49.5 µM.

With `CS(=O)(=O)O[C@H]1CN2C[C@@H](O)[C@@H](O)[C@H]2[C@H]1CO`, the TGI with T-47D breast, with UO-31 renal, in the assay on CCRF-CEM leukemia, with SR leukemia, with TK-10 renal and with LOX IMVI melanoma was more than 100 µM each time. Besides, the TGI with COLO 205 colon, with SK-MEL-5 melanoma and with SK-OV-3 ovarian was more than 100 µM throughout.

In the case of `Nc1c2c(nc3cc(F)c(F)cc13)CCC2`, the TGI in the assay on T-47D breast was more than 100 µM; with UO-31 renal, 20.7 µM; with SR leukemia, more than 100 µM; in the assay with TK-10 renal, 77.7 µM; in the assay with LOX IMVI melanoma it was more than 100 µM; in the assay on COLO 205 colon it was more than 100 µM. Also, the TGI in the assay with SK-MEL-5 melanoma, in the assay with SK-OV-3 ovarian and with NCI-H522 lung was more than 100 µM in each case.

`CCCCCCCCCC1(N=[N+]=[N-])C(=O)c2ccccc2N(C)C1=O` (stereo not given): the TGI in the assay with T-47D breast is 9.17 µM; in the assay on UO-31 renal it was more than 100 µM; in the assay with CCRF-CEM leukemia, more than 100 µM; with SR leukemia it was more than 100 µM; in the assay on TK-10 renal, more than 100 µM; in the assay on LOX IMVI melanoma it was 34.3 µM. The TGI is more than 100 µM in the assay with COLO 205 colon, 26.6 µM in the assay with SK-MEL-5 melanoma and more than 100 µM with SK-OV-3 ovarian.

In the case of `COC(=O)c1ccc(C(=O)NC(Cc2ccc(Oc3cc(CC(NC(=O)c4ccccc4C(=O)OC)C(=O)OC)ccc3OC)cc2)C(=O)OC)cc1` (stereo not given), the TGI with T-47D breast, with UO-31 renal, with CCRF-CEM leukemia, in the assay with SR leukemia, in the assay on TK-10 renal and in the assay with LOX IMVI melanoma was more than 100 µM in each case. Moreover, the TGI in the assay with COLO 205 colon and in the assay with SK-OV-3 ovarian was more than 100 µM in each case.

Consider `OCCCCCCCCCCCOc1ccc(C2OCC3(CO2)COC(c2ccc(OCCCCCCCCCCCO)cc2)OC3)cc1` (stereo not given), for which the TGI in the assay on T-47D breast, in the assay with UO-31 renal, in the assay with SR leukemia, with TK-10 renal, with LOX IMVI melanoma and in the assay with COLO 205 colon was more than 50 µM in each case. The TGI with SK-MEL-5 melanoma and with SK-OV-3 ovarian was more than 50 µM throughout.
